Data taken from patent publication US10022453B2 (BAYER PHARMA AKTIENGESELLSCHAFT, priority 2013, dated 2018).

Target: T1, human kinesin spindle protein KSP/Eg5 (Homo sapiens, UniProt P52732)
T1 construct: The motor domain of the human kinesin spindle protein KSP/Eg5; purchased tebu-bio/Cytoskeleton Inc 027EG01-XL
T1 sequence (P52732 18-359 limits assumed): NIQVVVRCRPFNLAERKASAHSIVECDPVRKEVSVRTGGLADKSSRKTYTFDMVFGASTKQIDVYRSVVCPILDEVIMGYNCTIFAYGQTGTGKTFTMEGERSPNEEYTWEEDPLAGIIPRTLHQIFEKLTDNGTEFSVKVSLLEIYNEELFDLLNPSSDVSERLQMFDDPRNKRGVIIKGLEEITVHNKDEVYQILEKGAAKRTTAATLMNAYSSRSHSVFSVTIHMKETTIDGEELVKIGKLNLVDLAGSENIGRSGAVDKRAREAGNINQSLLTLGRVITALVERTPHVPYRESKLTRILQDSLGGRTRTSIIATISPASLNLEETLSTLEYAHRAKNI
Assay: Inhibition of the kinesin spindle protein KSP/Eg5 (ATPase, malachite green)
Assay type: biochemical
Conditions: 10 nM KSP motor domain, 500 μM ATP, 2 h RT
Method: C-1b Determination of the Inhibition of the Kinesin Spindle Protein KSP/Eg5 by Selected Examples
The motor domain of the human kinesin spindle protein KSP/Eg5 (from tebu-bio/Cytoskeleton Inc, No. 027EG01-XL) is incubated at a concentration of 10 nM with 50 μg/ml taxol- (from Sigma No. T7191-5MG) stabilized microtubuli (bovine or porcine, from tebu-bio/Cytoskeleton Inc) for 5 min at RT in 15 mM PIPES, pH 6.8 (5 mM MgCl2 and 10 mM DTT, from Sigma). The freshly prepared mixture is aliquoted into a 384-well MTP. The inhibitors to be examined at concentrations of 1.0×10^−6 M to 1.0×10^−13 and ATP (final concentration 500 μM, from Sigma) are then added. Incubation is at RT for 2 h. ATPase activity is detected by detecting the inorganic phosphate formed using malachite green (from Biomol). […] The individual data of the dose-activity curve are eight-fold determinations. The IC50 values are means of three independent experiments.

| IC50 [nM] | SMILES |
| --- | --- |
| 2.52 | CC(C)(C)[C@H](c1nc(-c2cc(F)ccc2F)cn1Cc1ccccc1)N(CC(CN)CS)C(=O)CO (single isomer, unassigned; isomer 1) [Example 93] |
| 5.14 | CC(C)(C)[C@H](c1nc(-c2cc(F)ccc2F)cn1Cc1ccccc1)N(CC(CN)CS)C(=O)CO (single isomer, unassigned; isomer 2) [Example 94] |
| 1.42 | CC(C)(C)[C@H](c1nc(-c2cc(F)ccc2F)cn1Cc1ccccc1)N(CC[C@H](N)C(=O)N(N)CC(=O)O)C(=O)CO [Example 81, (1-{(2S)-2-Amino-4-[{(1R)-1-[1-benzyl-4-(2,5-difluorphenyl)-1H-imidazol-2-yl]-2,2-dimethylpropyl}(glycoloyl)amino]butanoyl}hydrazino)acetic acid/trifluoroacetic acid (1:2)] |
| 3.05 | CC(C)(C)[C@H](c1nc(-c2cc(F)ccc2F)cn1Cc1ccccc1)N(CCCN)C(=O)c1ccc(N)cc1 [Example 95, Trifluoroacetic acid/4-amino-N-(3-aminopropyl)-N-{(1R)-1-[1-benzyl-4-(2,5-difluorophenyl)-1H-imidazol-2-yl]-2,2-dimethylpropyl}benzamide (2:1)] |
| 5.99 | CC(C)(C)[C@H](c1nc(-c2cc(F)ccc2F)cn1Cc1ccccc1)N(CCCNC(=O)[C@@H](N)CCCNC(N)=O)C(=O)CO [Example 100, Trifluoroacetic acid/N-{3-[{(1R)-1-[1-benzyl-4-(2,5-difluorophenyl)-1H-imidazol-2-yl]-2,2-dimethylpropyl}(glycoloyl)amino]propyl}-N5-carbamoyl-L-ornithinamide (1:1)] |
| 0.179 | CC(C)(C)[C@H](c1cc(-c2cc(F)ccc2F)cn1Cc1ccccc1)N(CC[C@H](N)C(=O)N[C@@H](CO)C(=O)O)C(=O)CO [Example 201, N-{(2S)-2-Amino-4-[{(1R)-1-[1-benzyl-4-(2,5-difluorophenyl)-1H-pyrrol-2-yl]-2,2-dimethylpropyl}(glycoloyl)amino]butanoyl}-L-serine/trifluoroacetic acid (1:1)] |
| 0.23 | CC(C)(C)[C@H](c1cc(-c2cc(F)ccc2F)cn1Cc1ccccc1)N(CC[C@H](N)C(=O)NCC(=O)O)C(=O)CO [Example 203, N-{(2S)-2-Amino-4-[{(1R)-1-[1-benzyl-4-(2,5-difluorophenyl)-1H-pyrrol-2-yl]-2,2-dimethylpropyl}(glycoloyl)amino]butanoyl}glycine/trifluoroacetic acid (1:1)] |

| SMILES | IC50 [nM] |
| --- | --- |
| CC(C)(C)[C@H](c1nc(-c2cc(F)ccc2F)cn1Cc1ccccc1)N(CC[C@H](N)C(=O)NCCCC[C@H](N)C(=O)O)C(=O)CO.O=C(O)C(F)(F)F [Example 59, N^6-{(2S)-2-Amino-4-[{(1R)-1-[1-benzyl-4-(2,5-difluorophenyl)-1H-imidazol-2-yl]-2,2-dimethylpropyl}(glycoloyl)amino]butanoyl}-L-lysine trifluoroacetic acid (1:1)] | 4.27 |
| CC(C)[C@H](NC(=O)CCCCCN1C(=O)CC(SC[C@H](N)C(=O)O)C1=O)C(=O)N[C@@H](C)C(=O)N[C@@H](CCCCNC(=O)[C@@H](N)CCN(C(=O)CO)[C@@H](c1nc(-c2cc(F)ccc2F)cn1Cc1ccccc1)C(C)(C)C)C(=O)O.O=C(O)C(F)(F)F (stereo partly drawn) [Example 63, N-[6-(3-{[(2R)-2-Amino-2-carboxyethyl]sulfanyl}-2,5-dioxopyrrolidin-1-yl)hexanoyl]-L-valyl-L-alanyl-N^6-{(2S)-2-amino-4-[{(1R)-1-[1-benzyl-4-(2,5-difluorophenyl)-1H-imidazol-2-yl]-2,2-dimethylpropyl}(glycoloyl)amino]butanoyl}-L-lysine trifluoroacetic acid (1:1)] | 2.88 |
| CC(C)[C@H](N)C(=O)N[C@@H](CCCNC(N)=O)C(=O)NCCCN(C(=O)CO)[C@@H](c1nc(-c2cc(F)ccc2F)cn1Cc1ccccc1)C(C)(C)C [Example 101, Trifluoroacetic acid/L-valyl-N-{3-[{(1R)-1-[1-benzyl-4-(2,5-difluorophenyl)-1H-imidazol-2-yl]-2,2-dimethylpropyl}(glycoloyl)amino]propyl}-N5-carbamoyl-L-ornithinamide (1:1)] | 4.28 |
| CC(C)(C)[C@H](c1cc(-c2cc(F)ccc2F)cn1Cc1ccccc1)N(CC[C@H](N)C(=O)NCCNC(=O)CNC(=O)CC1SC[C@@H](C(=O)O)NC1=O)C(=O)CO (stereo partly drawn) [Example 256, (3R)-6-{(11S,15R)-11-Amino-15-[1-benzyl-4-(2,5-difluorophenyl)-1H-pyrrol-2-yl]-14-glycoloyl-16,16-dimethyl-2,5,10-trioxo-3,6,9,14-tetraazaheptadec-1-yl}-5-oxothiomorpholine-3-carboxylic acid/trifluoroacetic acid (1:1)] | 16.4 |

Tested on: not listed separately
Assay: Cell permeability, flux assay using Caco-2 cells
Conditions: human, Caco-2
Method: C-3 In Vitro Tests for Determining Cell Permeability
The cell permeability of a substance can be investigated by means of in vitro testing in a flux assay using Caco-2 cells [M. D. Troutman and D. R. Thakker, Pharm. […] For this purpose, the cells were cultured for 15-16 days on 24-well filter plates. For the determination of permeation, the respective working example was applied in a HEPES buffer to the cells either apically (A) or basally (B) and incubated for 2 hours. After 0 hours and after 2 hours, samples were taken from the cis and trans compartments. The samples were separated by HPLC (Agilent 1200, Böblingen, Germany) using reverse phase columns.
Of critical importance for toxophores which are released intracellularly is the permeability from B to A [Papp(B-A)] and the ratio of Papp(B-A) to Papp(A-B) (efflux ratio): the lower this permeability, the slower the active and passive transport processes of the substance through the monolayer of Caco-2 cells.

| SMILES | Papp B→A at 2 h [×10⁻⁶ cm/s] | efflux ratio at 2 h |
| --- | --- | --- |
| CC(C)(C)[C@H](c1nc(-c2cc(F)ccc2F)cn1Cc1ccccc1)N(CC[C@H](N)C(=O)NCCCC[C@H](N)C(=O)O)C(=O)CO.O=C(O)C(F)(F)F [Example 59, N^6-{(2S)-2-Amino-4-[{(1R)-1-[1-benzyl-4-(2,5-difluorophenyl)-1H-imidazol-2-yl]-2,2-dimethylpropyl}(glycoloyl)amino]butanoyl}-L-lysine trifluoroacetic acid (1:1)] | 2.2 | 4.8 |
| CC(C)(C)[C@H](c1nc(-c2cc(F)ccc2F)cn1Cc1ccccc1)N(CC[C@H](N)C(=O)NCCN1C(=O)CC(SC[C@H](N)C(=O)O)C1=O)C(=O)CO (stereo partly drawn) [Example 61, S-{1-[2-({(2S)-2-Amino-4-[{(1R)-1-[1-benzyl-4-(2,5-difluorophenyl)-1H-imidazol-2-yl]-2,2-dimethylpropyl}(glycoloyl)amino]butanoyl}amino)ethyl]-2,5-dioxopyrrolidin-3-yl}-L-cysteine] | 4.4 | 7.4 |
| CC(C)(C)[C@H](c1nc(-c2cc(F)ccc2F)cn1Cc1ccccc1)N(CC[C@H](N)C(=O)NCCOCCN1C(=O)CC(SC[C@H](N)C(=O)O)C1=O)C(=O)CO (some centres unmarked) [Example 62] | 5 | 6 |
| CC(C)[C@H](NC(=O)CCCCCN1C(=O)CC(SC[C@H](N)C(=O)O)C1=O)C(=O)N[C@@H](C)C(=O)N[C@@H](CCCCNC(=O)[C@@H](N)CCN(C(=O)CO)[C@@H](c1nc(-c2cc(F)ccc2F)cn1Cc1ccccc1)C(C)(C)C)C(=O)O.O=C(O)C(F)(F)F (stereo partly drawn) [Example 63, N-[6-(3-{[(2R)-2-Amino-2-carboxyethyl]sulfanyl}-2,5-dioxopyrrolidin-1-yl)hexanoyl]-L-valyl-L-alanyl-N^6-{(2S)-2-amino-4-[{(1R)-1-[1-benzyl-4-(2,5-difluorophenyl)-1H-imidazol-2-yl]-2,2-dimethylpropyl}(glycoloyl)amino]butanoyl}-L-lysine trifluoroacetic acid (1:1)] | 0.098 | 1.1 |
| CC(C)(C)[C@H](c1nc(-c2cc(F)ccc2F)cn1Cc1ccccc1)N(CC[C@H](N)C(=O)NN)C(=O)CO.O=C(O)C(F)(F)F [Example 77, Trifluoroacetic acid/N-[(3S)-3-amino-4-hydrazino-4-oxobutyl]-N-{(1R)-1-[1-benzyl-4-(2,5-difluorophenyl)-1H-imidazol-2-yl]-2,2-dimethylpropyl}-2-hydroxyacetamide (1:1)] | 48 | 47 |
| CC(C)(C)[C@H](c1nc(-c2cc(F)ccc2F)cn1Cc1ccccc1)N(CC[C@H](N)C(=O)NCCC(=O)O)C(=O)CO [Example 79, N-{(2S)-2-Amino-4-[{(1R)-1-[1-benzyl-4-(2,5-difluorophenyl)-1H-imidazol-2-yl]-2,2-dimethylpropyl}(glycoloyl)amino]butanoyl}-beta-alanine] | 5.8 | – |
| CC(C)(C)[C@H](c1cc(-c2cc(F)ccc2F)cn1Cc1ccccc1)N(CC[C@H](N)C(=O)NCCOCCN1C(=O)CC(SC[C@H](N)C(=O)O)C1=O)C(=O)CO.O=C(O)C(F)(F)F (stereo partly drawn) [Example 251, S-(1-{2-[2-({(2S)-2-Amino-4-[{(1R)-1-[1-benzyl-4-(2,5-difluorophenyl)-1H-pyrrol-2-yl]-2,2-dimethylpropyl}(glycoloyl)amino]butanoyl}amino)ethoxy]ethyl}-2,5-dioxopyrrolidin-3-yl)-L-cysteine/trifluoroacetic acid (1:1)] | 2.1 | – |
